Measured values as given in patent US20030083334A1, “Synergistic insecticidal formulations of pyridaben and strobilurins” (priority 2000, published 2003).

Key:
[1] = system: twospotted spider mites (Tetranychus urticae); assay: Greenhouse trial, dracaena infected with twospotted spider mites; % control; type: in vivo
Method: (§1) A greenhouse trial was conducted to determine the insecticidal effects against the cotton aphid (Aphis gossypil). In this regard, cotton plants infected with the cotton aphid were sprayed in a growth chamber and placed in a greenhouse. Counts were made on apterous forms at 6 and 16 days after treatment (DAT), with the data appearing in Tables 1A and 1 B below.
Example 1 was repeated except using dracaena infected with twospotted spider mites (Tetranychus urticae) and using the application rates noted.

cotton aphid = assay: Greenhouse trial, number of apterous aphids (AA) per cotton plant; type: in vivo, Aphis gossypil; settings: for # of AA 6 DAT / # of AA 16 DAT: apterous aphids per plant; for # of AA 6 DAT: untreated 290; for # of AA 16 DAT: untreated 750
Method: as §1
Example 1 was repeated and the number of apterous aphids (AA) per plant at 6 and 16 DAT were noted. The data appear in Table 4 below versus a conventional insecticide, imidacloprid (Provado® insecticide commercially available from Bayer Corp.).

[2] = system: cotton aphid (Aphis gossypil); assay: Greenhouse trial, cotton plants infected with cotton aphid, sprayed; % control; type: in vivo
Method: as §1

[3] = system: green peach aphids (Myzus persicae); assay: Greenhouse trial, celosia infected with green peach aphids; % control; type: in vivo
Method: as §1
Example 1 was repeated except using celosia infected with green peach aphids (Myzus persicae) and using the application rates noted.

SMILES	# of AA 6 DAT (cotton aphid; 5 ppm ai)	# of AA 16 DAT (cotton aphid; 5 ppm ai)	# of AA 6 DAT (cotton aphid; 10 ppm ai)	# of AA 16 DAT (cotton aphid; 10 ppm ai)	# of AA 6 DAT (cotton aphid; 50 ppm ai)	# of AA 16 DAT (cotton aphid; 50 ppm ai)	# of AA 6 DAT (cotton aphid; 100 ppm ai)	# of AA 16 DAT (cotton aphid; 100 ppm ai)	% Cotton Aphid Control 6 DAT ([2]; 5 ppm)	% Cotton Aphid Control 16 DAT ([2]; 5 ppm)	% Cotton Aphid Control 6 DAT ([2]; 10 ppm)	% Cotton Aphid Control 16 DAT ([2]; 10 ppm)	% Cotton Aphid Control 6 DAT ([2]; 50 ppm)	% Cotton Aphid Control 16 DAT ([2]; 50 ppm)	% Cotton Aphid Control 6 DAT ([2]; 100 ppm)	% Cotton Aphid Control 16 DAT ([2]; 100 ppm)	also measured
CC(C)(C)c1ccc(CSc2cnn(C(C)(C)C)c(=O)c2Cl)cc1 [BAS 300, 2-tert-butyl-5-(4-tert-butylbenzylthio)-4-chloropyridazin-3(2H)-one]	76	233	72	222	16	15	7	7	73.8%	68.9%	75.2%	70.4%	94.5%	98%	97.6%	99.1%	% Twospotted Spider Mite Control ([1]; 2 oz formulated product/100 gal, 7 DAT): 80%; % Twospotted Spider Mite Control ([1]; 2 oz formulated product/100 gal, 14 DAT): 91%; activity against the cotton aphid (cotton aphid; 6 DAT, application rate of 5 ppm ai): moderate activity; # of AA 6 DAT (cotton aphid; 200 ppm ai): 1; # of AA 16 DAT (cotton aphid; 200 ppm ai): 4; # of AA 6 DAT (cotton aphid; 300 ppm ai): 2; # of AA 16 DAT (cotton aphid; 300 ppm ai): 2; intrinsic activity against the cotton aphid (cotton aphid; in vivo): excellent intrinsic activity; % Green Peach Aphid Control ([3]; 0.9 lb ai/100 gal, 2 DAT): 0%; % Green Peach Aphid Control ([3]; 0.9 lb ai/100 gal, 4 DAT): 47%; % Green Peach Aphid Control ([3]; 0.9 lb ai/100 gal, 6 DAT): 77%; % Green Peach Aphid Control ([3]; 0.9 lb ai/100 gal, 10 DAT): 97%; % Green Peach Aphid Control ([3]; 0.9 lb ai/100 gal, 14 DAT): 95%
CO/N=C(/C(=O)OC)c1ccccc1COc1ccccc1C [BAS 490, methyl-(E)-2-methoxyimino-2-[2-o-tolyoxy-methyl)phenyl] acetate]	258	650	290	643	298	717	316	550	11%	13.3%	0%	14.3%	0%	4.4%	0%	26.6%	% Twospotted Spider Mite Control ([1]; 3.2 oz formulated product/100 gal, 7 DAT): 16%; % Twospotted Spider Mite Control ([1]; 3.2 oz formulated product/100 gal, 14 DAT): 28%; effectiveness alone against the cotton aphid (cotton aphid; alone, at all rates): ineffective alone; % Green Peach Aphid Control ([3]; 0.1 lb ai/100 gal, 2 DAT): 0%; % Green Peach Aphid Control ([3]; 0.1 lb ai/100 gal, 4 DAT): 14%; % Green Peach Aphid Control ([3]; 0.1 lb ai/100 gal, 6 DAT): 5%; % Green Peach Aphid Control ([3]; 0.1 lb ai/100 gal, 10 DAT): 10%; % Green Peach Aphid Control ([3]; 0.1 lb ai/100 gal, 14 DAT): 5%
